The record followed here is article PMC9378673 (Nature Communications, 2022).

Experiment [1] deals with LN18 cells containing an empty vector (control, no IDH1). Put plainly: 2-HG levels in cells by anion-exchange chromatography-MS. In kind it is cell-based, human. Also on record: unit not given here.
The target in the next experiment is T1, IDH1 S280F (Homo sapiens, UniProt O75874, S280F).
T1 construct: made in house; host or cells: E. coli BL21(DE3)plysS
Put plainly: Steady-state kinetics, spectrophotometric NADPH absorption assay. In kind it is biochemical. The protocol: (§1) This assay was used to study steady-state kinetics and inhibition of reactions catalysed by IDH1 variants. The assay buffer was 100 mM Tris, 10 mM MgCl2, 0.2 mM dithiothreitol (DTT), 0.005%(v/v) Tween 20, and 0.1 mg mL^−1 bovine serum albumin (BSA) (pH 8.0). For inhibition assays, IDH1 variants were incubated with an inhibitor for 12 min before the reaction was initiated by substrate addition. The standard error was derived from curve fitting using GraphPad Prism v9. See figure legends for details on specific kinetic assays (Figs. 1–3; Supplementary Fig. 5; Supplementary Table 1). […]
(§2) spectrophotometric NADPH absorption assay. Conditions: 100 mM Tris, 10 mM MgCl2, 0.2 mM DTT, 0.005 %(v/v) Tween 20, and 0.1 mg/mL bovine serum albumin (BSA), pH 8.0. […] (a) Michaelis Menten […]
(§3) parameters for the oxidative decarboxylation of isocitrate. Errors: standard error of the mean (n = 3). (b) Michaelis Menten parameters for the reduction of 2-OG to 2-HG. Errors: standard error of the mean (n = 3).

The next experiment concerns the target T2, IDH1 wt (Homo sapiens, UniProt O75874).
T2 construct: made in house; host or cells: E. coli BL21(DE3)plysS
The description is as above. In kind it is biochemical. The protocol:
as §1, §2, §3

Setting [2] is: 5 µM inhibitor, 24 h, replicates.
The mark [3] stands for this setting: reduction of 2-OG to 2-HG; […] enzyme; read-out: KM IDH1 S280F.
Setting [4] is: oxidative decarboxylation of isocitrate; 1 nM enzyme; read-out: KM IDH1 S280F.
[5] abbreviates: oxidative decarboxylation of isocitrate; 1 nM enzyme; read-out: KM IDH1 wt.
[6] abbreviates: oxidative decarboxylation of isocitrate; 1 nM enzyme; varied substrate = label.

SMILES strings stand for the structures. “And” between values parts separate entries of the source, which are not always exact repeats. Equal values may be shown once. Where a name gives a salt, the structure may show the parent alone. Read-outs that look alike come from different tables or passages of the source.

T1 sequence (O75874 whole entry S280F): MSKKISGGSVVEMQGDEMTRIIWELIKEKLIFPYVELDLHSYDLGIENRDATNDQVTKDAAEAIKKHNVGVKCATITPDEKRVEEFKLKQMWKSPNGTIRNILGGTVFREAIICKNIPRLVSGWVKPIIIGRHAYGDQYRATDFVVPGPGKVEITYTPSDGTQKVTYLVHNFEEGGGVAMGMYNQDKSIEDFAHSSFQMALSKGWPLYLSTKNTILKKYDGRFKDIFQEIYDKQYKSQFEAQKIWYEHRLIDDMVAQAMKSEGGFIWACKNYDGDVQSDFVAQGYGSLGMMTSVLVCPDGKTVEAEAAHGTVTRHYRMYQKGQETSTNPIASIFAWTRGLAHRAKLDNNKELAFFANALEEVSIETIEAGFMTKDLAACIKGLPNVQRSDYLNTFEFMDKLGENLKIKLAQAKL
T2 sequence (O75874 whole entry): as the sequence (O75874 whole entry S280F) above, with F280S counted along it

`Cc1cn(C(=O)c2c(-c3c(Cl)cc(Cl)cc3Cl)noc2C(C)(C)F)c2cccc(/C=C/C(=O)O)c12` [DS-1001B]: in experiment [1] (setting [2]), the “2-HG levels, control (empty vector) LN18 cells” value (shortened to “2-HG levels, control”) is 51141.4 and 46980.7 and 53466.4 and 38288.1.

Take `CC(Nc1nccc(N2C(=O)OCC2C(C)C)n1)c1ccc(CN2CCC(F)(F)CC2)cc1` (stereo not drawn) [IDH224]: the “2-HG levels, control” value in experiment [1] is 89318.1 and 81458.8 and 60558.2 and 69273.4.

With `NC(=O)C1=CN([C@@H]2O[C@H](COP(=O)(O)OP(=O)(O)OC[C@H]3O[C@@H](n4cnc5c(N)ncnc54)[C@H](OP(=O)(O)O)[C@@H]3O)[C@@H](O)[C@H]2O)C=CC1` [NADPH], the figures for the Km on IDH1 S280F (setting [3]) and at IDH1 wt (reduction of 2-OG to 2-HG; […] enzyme; read-out: KM IDH1 wt) were 3 ± 0.3 µM and 7 ± 2 µM, respectively.

Take `C[C@H](Nc1ccc(C#N)n(C)c1=O)c1cc2cc(Cl)ccc2[nH]c1=O` [FT-2102]: the “2-HG levels, control” value in experiment [1] (setting [2]) is 52804.5 and 64927 and 75933.5 and 34018.1.

For `O=C(O)CC(C(=O)O)C(O)C(=O)O` (racemic) [DL-Isocitrate, DL-isocitric acid trisodium salt], the Michaelis constant (Km) is 12 ± 1 µM at IDH1 S280F (setting [4]) and 31 ± 3 µM at IDH1 wt (setting [5]).

For the compound `COc1c(C)cc(NC(=O)c2nn(Cc3ccc(F)cc3)c3c2CN(C(=O)c2ccc[nH]2)C[C@]3(C)C(N)=O)cc1C` [GSK864], in experiment [1] (setting [2]), the “2-HG levels, control” value is 43585.6 and 50898.8 and 60357.4 and 48169.7.

Turning to `NC(=O)c1ccc[n+]([C@@H]2O[C@H](COP(=O)([O-])OP(=O)(O)OC[C@H]3O[C@@H](n4cnc5c(N)ncnc54)[C@H](OP(=O)(O)O)[C@@H]3O)[C@@H](O)[C@H]2O)c1` [NADP+], the Michaelis-Menten constant (Km) at IDH1 S280F (setting [4]) amounted to 7.4 ± 0.7 µM; at IDH1 wt (setting [5]) it was 10.1 ± 0.7 µM. In addition, the “kcat IDH1 S280F” value at IDH1 S280F (setting [6]) is 31.3 ± 0.6 s⁻¹. On IDH1 wt (setting [6]), the “kcat IDH1 wt” value stood at 43.2 ± 0.7 s⁻¹.

For `[Cl-].[Cl-].[Mg+2]` [MgCl2], the Michaelis-Menten constant (Km) was found to be 24 ± 3 µM at IDH1 S280F (setting [4]), 15 ± 4 µM on IDH1 S280F (setting [3]) and 18 ± 2 µM on IDH1 wt (setting [5]). For the same compound, at IDH1 S280F (setting [6]), the “kcat IDH1 S280F” value turned out to be 33 ± 1 s⁻¹. In addition, at IDH1 S280F (reduction of 2-OG to 2-HG), the “Decrease of KM for IDH1 S280F compared to IDH1 wt” value is given as 100 fold. Moreover, the “kcat IDH1 wt” value at IDH1 wt (setting [6]) worked out at 37 ± 1 s⁻¹.

With `O=C(O)CCC(=O)C(=O)O` [2-OG, 2-oxoglutarate], the Michaelis-Menten constant (Km) on IDH1 S280F (read-out: KM IDH1 S280F; reduction of 2-OG to 2-HG; […] enzyme) was 123 ± 4 µM; on IDH1 wt (read-out: KM IDH1 wt; reduction of 2-OG to 2-HG; […] enzyme) it was 792 ± 103 µM.

As for `N#Cc1ccnc(N2C(=O)CC[C@H]2C(=O)N(c2cncc(F)c2)[C@H](C(=O)NC2CC(F)(F)C2)c2ccccc2Cl)c1` [ivosidenib], the “2-HG levels, control” value in experiment [1] (5 µM inhibitor, 24 h, replicates, listed as AG120) is 57883 and 75917.7 and 85802.8 and 47477.2.

What is called Km is the concentration of substrate that gives half-maximal velocity.
